Source: US6444617B1, “Fused-heterocycle dicarboxylic acid diamide derivatives or salts thereof, herbicide and usage thereof” (Nihon Nohyaku Co., Ltd., priority 1998, dated 2002)

Columns and labels:
Format in all cases: in vivo
[1] = tested on: barnyard grass (Echinochloa crus-galli Beauv.); assay: Test Example 1: herbicidal effect on paddy field weeds before emergence; conditions: Dosage 5 kg/ha
In short: (§1)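 Soil in pots is brought to paddy state and seeded with barnyard grass and bulrush; before germination, the soil receives a predetermined dosage of test compound in solution. After twenty-one days, control rate relative to untreated pots is calculated and graded.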

[2] = tested on: bulrush (Scirpus juncoides Roxb.); assay: as above; conditions: Dosage 5 kg/ha
In short: as §1

soybean plant (So) = assay: Test Example 3: phytotoxicity to upland crop plants, treatment before emergence; conditions: dosage 5 kg/ha
In short: (§2)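 Pre-emergence spray of a liquid preparation at a prescribed compound concentration. Soybean and wheat injury was scored against a phytotoxicity criterion 14 days after treatment, alongside weed control.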

wheat (Wh) = assay: as above; conditions: dosage 5 kg/ha
In short: as §2

[3] = tested on: monochoria (Monochoria vaginalis Presl); assay: Test Example 2: herbicidal effect on paddy field weeds after emergence; conditions: Dosage 5 kg/ha; one-leaved stage; 21 days after treatment
In short: (§3)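 Weeds in flooded paddy-soil pots were grown to the one-leaved stage, then the soil was treated with the compound solution at a set dosage.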

[4] = tested on: barnyard grass (Echinochloa crus-galli Beauv.); assay: as above; conditions: Dosage 5 kg/ha; one-leaved stage; 21 days after treatment
In short: as §3

[5] = tested on: bulrush (Scirpus juncoides Roxb.); assay: as above; conditions: Dosage 5 kg/ha; one-leaved stage; 21 days after treatment
In short: as §3

soybean plant = assay: Test Example 4: phytotoxicity to upland crop plants, treatment after emergence; conditions: dosage 5 kg/ha, sprayed after emergence, judged 14 days after treatment
In short: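 Upland weeds and crop plants (soybean, wheat) are grown from seed in soil until they reach given leaf stages, then treated by spraying with the compound-containing agent; effects are judged two weeks later.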

wheat = assay: as above; conditions: dosage 5 kg/ha, sprayed after emergence, judged 14 days after treatment
In short: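 Weeds, soybean and wheat were sown in soil-filled vats, covered with soil and grown to set leaf stages before a post-emergence spray of an agent containing the compound at a prescribed concentration. Weed-killing rate and crop phytotoxicity were assessed 14 days after treatment.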

[6] = tested on: cocklebur (Xanthium strumarium L.), Xs; assay: Test Example 3: herbicidal effect on upland weeds before emergence; conditions: dosage 5 kg/ha
In short: (§4)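 Pre-emergence spray of liquid prep, compound at set concentration; read at 14 d post-treatment; weed-kill rate calculated, effect graded.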

[7] = tested on: cleavers (Galium aparine L.), Ga; assay: as above; conditions: dosage 5 kg/ha
In short: as §4

[8] = tested on: forxtail grass (Alopecurus aequalis var. amurensis Ohwi), Am; assay: as above; conditions: foxtail grass, dosage 5 kg/ha
In short: as §4

[9] = tested on: barnyard grass (Echinochloa crus-galli Beauv.), Ec; assay: as above; conditions: dosage 5 kg/ha
In short: as §4

[10] = tested on: bird's eye speedwell (Veronica persica Poir.), Vp; assay: as above; conditions: dosage 5 kg/ha
In short: as §4

[11] = tested on: velvetleaf (Abutilon theophtasti L.), At; assay: as above; conditions: dosage 5 kg/ha
In short: as §4

[12] = tested on: cocklebur (Xanthium strumarium L.), Xs; assay: Test Example 4: herbicidal effect on upland weeds after emergence; conditions: dosage 5 kg/ha; sprayed after emergence; judged 14 days after treatment
In short: (§5)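 Weeds and soybean grown in soil-filled vats to set leaf stages, then sprayed post-emergence with the compound at a prescribed concentration. Weed-killing rate and crop phytotoxicity judged 14 days after treatment.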

[13] = tested on: cleavers (Galium aparine L.), Ga; assay: as above; conditions: dosage 5 kg/ha; sprayed after emergence; judged 14 days after treatment
In short: as §5

[14] = tested on: forxtail grass (Alopecurus aequalis var. amurensis Ohwi), Am; assay: as above; conditions: dosage 5 kg/ha; sprayed after emergence; judged 14 days after treatment
In short: as §5

[15] = tested on: barnyard grass (Echinochloa crus-galli Beauv.), Ec; assay: as above; conditions: dosage 5 kg/ha; sprayed after emergence; judged 14 days after treatment
In short: as §5

[16] = tested on: bird's eye speedwell (Veronica persica Poir.), Vp; assay: as above; conditions: dosage 5 kg/ha; sprayed after emergence; judged 14 days after treatment
In short: as §5

[17] = tested on: velvetleaf (Abutilon theophtasti L.), At; assay: as above; conditions: dosage 5 kg/ha; sprayed after emergence; judged 14 days after treatment
In short: as §5

SMILES: Cc1c(Cl)cccc1NC(=O)c1cc2c(nc1C(=O)NCC(C)C)SCCC2 [compound 527]
- Pre-emergence treatment Barnyard grass (herbicidal effect) [1]: 5 (Weed-killing rate is 100%.)
- Pre-emergence treatment Bulrush (herbicidal effect) [2]: 5 (Weed-killing rate is 100%.)
- Phytotoxicity So (soybean plant (So)): 5 (Crop-killing rate is 100%.)
- Phytotoxicity Wh (wheat (Wh)): 5 (Crop-killing rate is 100%.)
- Post-emergence treatment Monochoria (herbicidal effect) [3]: 5 (Weed-killing rate is 100%.)
- Post-emergence treatment Barnyard grass (herbicidal effect) [4]: 5 (Weed-killing rate is 100%.)
- Post-emergence treatment Bulrush (herbicidal effect) [5]: 5 (Weed-killing rate is 100%.)
- Phytotoxicity So (soybean plant): 5 (Crop-killing rate is 100%.)
- Phytotoxicity Wh (wheat): 5 (Crop-killing rate is 100%.)
- Herbicidal effect Xs [6]: 4 (Weed-killing rate is 90-99%.)
- Herbicidal effect Ga [7]: 5 (Weed-killing rate is 100%.)
- Herbicidal effect Am [8]: 5 (Weed-killing rate is 100%.)
- Herbicidal effect Ec [9]: 5 (Weed-killing rate is 100%.)
- Herbicidal effect Vp [10]: 5 (Weed-killing rate is 100%.)
- Herbicidal effect At [11]: 5 (Weed-killing rate is 100%.)
- Herbicidal effect Xs [12]: 4 (Weed-killing rate is 90-99%.)
- Herbicidal effect Ga [13]: 5 (Weed-killing rate is 100%.)
- Herbicidal effect Am [14]: 5 (Weed-killing rate is 100%.)
- Herbicidal effect Ec [15]: 5 (Weed-killing rate is 100%.)
- Herbicidal effect Vp [16]: 5 (Weed-killing rate is 100%.)
- Herbicidal effect At [17]: 5 (Weed-killing rate is 100%.)

SMILES: CCCNC(=O)c1nc2c(cc1C(=O)Nc1c(CC)ccc(Cl)c1CC)CCSC2 [compound 534]
- Pre-emergence treatment Barnyard grass (herbicidal effect) [1]: 5 (Weed-killing rate is 100%.)
- Pre-emergence treatment Bulrush (herbicidal effect) [2]: 5 (Weed-killing rate is 100%.)
- Phytotoxicity So (soybean plant (So)): 3 (Crop-killing rate is 70-89%.)
- Phytotoxicity Wh (wheat (Wh)): 4 (Crop-killing rate is 90-99%.)
- Post-emergence treatment Monochoria (herbicidal effect) [3]: 5 (Weed-killing rate is 100%.)
- Post-emergence treatment Barnyard grass (herbicidal effect) [4]: 5 (Weed-killing rate is 100%.)
- Post-emergence treatment Bulrush (herbicidal effect) [5]: 5 (Weed-killing rate is 100%.)
- Phytotoxicity So (soybean plant): 4 (Crop-killing rate is 90-99%.)
- Phytotoxicity Wh (wheat): 4 (Crop-killing rate is 90-99%.)
- Herbicidal effect Xs [6]: 5 (Weed-killing rate is 100%.)
- Herbicidal effect Ga [7]: 5 (Weed-killing rate is 100%.)
- Herbicidal effect Am [8]: 5 (Weed-killing rate is 100%.)
- Herbicidal effect Ec [9]: 5 (Weed-killing rate is 100%.)
- Herbicidal effect Vp [10]: 5 (Weed-killing rate is 100%.)
- Herbicidal effect At [11]: 5 (Weed-killing rate is 100%.)
- Herbicidal effect Xs [12]: 5 (Weed-killing rate is 100%.)
- Herbicidal effect Ga [13]: 5 (Weed-killing rate is 100%.)
- Herbicidal effect Am [14]: 5 (Weed-killing rate is 100%.)
- Herbicidal effect Ec [15]: 5 (Weed-killing rate is 100%.)
- Herbicidal effect Vp [16]: 5 (Weed-killing rate is 100%.)
- Herbicidal effect At [17]: 5 (Weed-killing rate is 100%.)

SMILES: CCCNC(=O)c1nc2c(cc1C(=O)Nc1c(CC)ccc(Cl)c1CC)CSCC2 [compound 558]
- Pre-emergence treatment Barnyard grass (herbicidal effect) [1]: 5 (Weed-killing rate is 100%.)
- Pre-emergence treatment Bulrush (herbicidal effect) [2]: 5 (Weed-killing rate is 100%.)
- Phytotoxicity So (soybean plant (So)): 5 (Crop-killing rate is 100%.)
- Phytotoxicity Wh (wheat (Wh)): 5 (Crop-killing rate is 100%.)
- Post-emergence treatment Monochoria (herbicidal effect) [3]: 5 (Weed-killing rate is 100%.)
- Post-emergence treatment Barnyard grass (herbicidal effect) [4]: 5 (Weed-killing rate is 100%.)
- Post-emergence treatment Bulrush (herbicidal effect) [5]: 5 (Weed-killing rate is 100%.)
- Phytotoxicity So (soybean plant): 5 (Crop-killing rate is 100%.)
- Phytotoxicity Wh (wheat): 5 (Crop-killing rate is 100%.)
- Herbicidal effect Xs [6]: 5 (Weed-killing rate is 100%.)
- Herbicidal effect Ga [7]: 5 (Weed-killing rate is 100%.)
- Herbicidal effect Am [8]: 5 (Weed-killing rate is 100%.)
- Herbicidal effect Ec [9]: 5 (Weed-killing rate is 100%.)
- Herbicidal effect Vp [10]: 5 (Weed-killing rate is 100%.)
- Herbicidal effect At [11]: 5 (Weed-killing rate is 100%.)
- Herbicidal effect Xs [12]: 5 (Weed-killing rate is 100%.)
- Herbicidal effect Ga [13]: 5 (Weed-killing rate is 100%.)
- Herbicidal effect Am [14]: 5 (Weed-killing rate is 100%.)
- Herbicidal effect Ec [15]: 5 (Weed-killing rate is 100%.)
- Herbicidal effect Vp [16]: 5 (Weed-killing rate is 100%.)
- Herbicidal effect At [17]: 5 (Weed-killing rate is 100%.)

SMILES: CCNC(=O)c1nc2occc2cc1C(=O)Nc1c(CC)ccc(Cl)c1CC [compound 774]
- Pre-emergence treatment Barnyard grass (herbicidal effect) [1]: 5 (Weed-killing rate is 100%.)
- Pre-emergence treatment Bulrush (herbicidal effect) [2]: 5 (Weed-killing rate is 100%.)
- Phytotoxicity So (soybean plant (So)): 4 (Crop-killing rate is 90-99%.)
- Phytotoxicity Wh (wheat (Wh)): 5 (Crop-killing rate is 100%.)
- Post-emergence treatment Monochoria (herbicidal effect) [3]: 5 (Weed-killing rate is 100%.)
- Post-emergence treatment Barnyard grass (herbicidal effect) [4]: 5 (Weed-killing rate is 100%.)
- Post-emergence treatment Bulrush (herbicidal effect) [5]: 5 (Weed-killing rate is 100%.)
- Phytotoxicity So (soybean plant): 4 (Crop-killing rate is 90-99%.)
- Phytotoxicity Wh (wheat): 5 (Crop-killing rate is 100%.)
- Herbicidal effect Xs [6]: 5 (Weed-killing rate is 100%.)
- Herbicidal effect Ga [7]: 5 (Weed-killing rate is 100%.)
- Herbicidal effect Am [8]: 5 (Weed-killing rate is 100%.)
- Herbicidal effect Ec [9]: 5 (Weed-killing rate is 100%.)
- Herbicidal effect Vp [10]: 5 (Weed-killing rate is 100%.)
- Herbicidal effect At [11]: 5 (Weed-killing rate is 100%.)
- Herbicidal effect Xs [12]: 5 (Weed-killing rate is 100%.)
- Herbicidal effect Ga [13]: 5 (Weed-killing rate is 100%.)
- Herbicidal effect Am [14]: 5 (Weed-killing rate is 100%.)
- Herbicidal effect Ec [15]: 5 (Weed-killing rate is 100%.)
- Herbicidal effect Vp [16]: 5 (Weed-killing rate is 100%.)
- Herbicidal effect At [17]: 5 (Weed-killing rate is 100%.)

SMILES: CCCNC(=O)c1nc2occc2cc1C(=O)Nc1c(CC)ccc(Cl)c1CC [compound 775]
- Pre-emergence treatment Barnyard grass (herbicidal effect) [1]: 5 (Weed-killing rate is 100%.)
- Pre-emergence treatment Bulrush (herbicidal effect) [2]: 5 (Weed-killing rate is 100%.)
- Phytotoxicity So (soybean plant (So)): 5 (Crop-killing rate is 100%.)
- Phytotoxicity Wh (wheat (Wh)): 5 (Crop-killing rate is 100%.)
- Post-emergence treatment Monochoria (herbicidal effect) [3]: 5 (Weed-killing rate is 100%.)
- Post-emergence treatment Barnyard grass (herbicidal effect) [4]: 5 (Weed-killing rate is 100%.)
- Post-emergence treatment Bulrush (herbicidal effect) [5]: 5 (Weed-killing rate is 100%.)
- Phytotoxicity So (soybean plant): 5 (Crop-killing rate is 100%.)
- Phytotoxicity Wh (wheat): 5 (Crop-killing rate is 100%.)
- Herbicidal effect Xs [6]: 5 (Weed-killing rate is 100%.)
- Herbicidal effect Ga [7]: 5 (Weed-killing rate is 100%.)
- Herbicidal effect Am [8]: 5 (Weed-killing rate is 100%.)
- Herbicidal effect Ec [9]: 5 (Weed-killing rate is 100%.)
- Herbicidal effect Vp [10]: 5 (Weed-killing rate is 100%.)
- Herbicidal effect At [11]: 5 (Weed-killing rate is 100%.)
- Herbicidal effect Xs [12]: 5 (Weed-killing rate is 100%.)
- Herbicidal effect Ga [13]: 5 (Weed-killing rate is 100%.)
- Herbicidal effect Am [14]: 5 (Weed-killing rate is 100%.)
- Herbicidal effect Ec [15]: 5 (Weed-killing rate is 100%.)
- Herbicidal effect Vp [16]: 5 (Weed-killing rate is 100%.)
- Herbicidal effect At [17]: 5 (Weed-killing rate is 100%.)

SMILES: Cc1c(Cl)cccc1NC(=O)c1cc2ccoc2nc1C(=O)NC1CCCC1 [compound 796]
- Pre-emergence treatment Barnyard grass (herbicidal effect) [1]: 5 (Weed-killing rate is 100%.)
- Pre-emergence treatment Bulrush (herbicidal effect) [2]: 5 (Weed-killing rate is 100%.)
- Phytotoxicity So (soybean plant (So)): 4 (Crop-killing rate is 90-99%.)
- Phytotoxicity Wh (wheat (Wh)): 5 (Crop-killing rate is 100%.)
- Post-emergence treatment Monochoria (herbicidal effect) [3]: 5 (Weed-killing rate is 100%.)
- Post-emergence treatment Barnyard grass (herbicidal effect) [4]: 5 (Weed-killing rate is 100%.)
- Post-emergence treatment Bulrush (herbicidal effect) [5]: 5 (Weed-killing rate is 100%.)
- Phytotoxicity So (soybean plant): 4 (Crop-killing rate is 90-99%.)
- Phytotoxicity Wh (wheat): 4 (Crop-killing rate is 90-99%.)
- Herbicidal effect Xs [6]: 4 (Weed-killing rate is 90-99%.)
- Herbicidal effect Ga [7]: 5 (Weed-killing rate is 100%.)
- Herbicidal effect Am [8]: 5 (Weed-killing rate is 100%.)
- Herbicidal effect Ec [9]: 5 (Weed-killing rate is 100%.)
- Herbicidal effect Vp [10]: 5 (Weed-killing rate is 100%.)
- Herbicidal effect At [11]: 5 (Weed-killing rate is 100%.)
- Herbicidal effect Xs [12]: 4 (Weed-killing rate is 90-99%.)
- Herbicidal effect Ga [13]: 4 (Weed-killing rate is 90-99%.)
- Herbicidal effect Am [14]: 5 (Weed-killing rate is 100%.)
- Herbicidal effect Ec [15]: 5 (Weed-killing rate is 100%.)
- Herbicidal effect Vp [16]: 5 (Weed-killing rate is 100%.)
- Herbicidal effect At [17]: 5 (Weed-killing rate is 100%.)
